Laboratory results: paper PMC10321576, “Cyclic peptides target the aromatic cage of a PHD-finger reader domain to modulate epigenetic protein function” (Chemical Science, 2023)
Like-named read-outs stand apart in the source and are kept apart here. Blank lines part the entries; values can stand above or below the compound they belong to. Ends that are not written are not given here. Peptide text beside a SMILES is read from it.

Key:
KDM7A dual domain = KDM7A dual domain (Homo sapiens, UniProt Q6ZMT4); assay: MALDI-TOF-MS KDM7 activity assay (H3 peptide demethylation); type: biochemical
Experimental: Fig. 5 KDM7 PHD-finger inhibition by OC9 modulates dual domain JmjC activity. (a) (i–iii) OC9 inhibits demethylation of H3K9me2, with or without K4me3, by KDM7B (0.4 μM) on H3 peptide (2.5 μM). […] (b) (i–iii) OC9 enhances demethylation of H3K4me3K9me2 by KDM7A (0.55 μM) on H3 peptide (2.5 μM), and (iv) enhances KDM7A (0.5 μM) demethylation of calf histone extracts (50 μg). […] Inset MALDI-TOF-MS overlays are from respective highest OC9 concentration points compared to DMSO alone. KDM7 PHD-finger only proteins had no demethylase activity (Fig. S40 ^†). Calf histone H3K9me2 was quantitated relative to H4 band intensities at each time point, normalised to DMSO at t = 0. Full Western blots available in Fig. S42. ^† Relative rates (Krel min^−1) from a one-phase decay model, average from N = 3 independent experiments. […] The enzyme heading of the panel (KDM7B / KDM7A) was put in front of them. / DMSO is the vehicle control. Its printed rates (0.30 min^-1 in a, 0.04 min^-1 in b) are included because they are printed with its name.
In contrast to KDM7B, KDM7A lacks activity against H3K4me3K9me2, but demethylates H3_1–21K9me2.[57] OC9, however, restored the activity of KDM7A against H3_1–21K4me3K9me2 from <5% to a level (∼30%) that approached demethylation on H3_1–21K9me2 with DMSO alone (∼40%) (Fig. 5b and S39 ^†). […]

KDM7B Dual = target: T1, KDM7B Dual (Homo sapiens, UniProt Q9UPP1); assay: ITC binding
T1 construct: Dual = PHD+JmjC; made in house
Experimental: Figure S10. ITC results: Tabulated values from 1:1 binding model and conditions
ITC buffer = 50 mM HEPES, 100 mM NaCl, pH 7.4, 0.2 µm filtered), at 25 °C. Dual = PHD+JmjC. HisTrx
= His 6+thioredoxin tag, GST = glutathione S -transferase tag, ZB = Z -basic tag. Syringe contained
peptide solution in buffer. Cell contained protein solution in buffer.
(§1) (1 picture or pasted object on this page, not shown here)

KDM7B PHD [1] = target: T2, KDM7B PHD (Homo sapiens, UniProt Q9UPP1); assay: BLI binding; design: key to BLI Screening, KDM7B PHD: (+) = binding; (-) = no binding; (NS) = non-specific; conditions: for BLI Screening, KDM7B PHD: qualitative assessment of binding by BLI
T2 construct: KDM7B 1-66; made in house
T2 sequence (Q9UPP1 1-66 isoform Q9UPP1-2): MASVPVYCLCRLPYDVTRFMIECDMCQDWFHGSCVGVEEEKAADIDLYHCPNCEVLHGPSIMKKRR
From the text: (§2) Figure S2. BLI for KDM7 proteins with cyclic peptides.
(§3) BLI traces for b inding to KDM7 protein domains immobilised by C-terminal His -tag on Ni -NTA
(§4) biosensors, against cyclic peptides. Response trace for each peptide concentration is represented by
(§5) a different colour, with the fitted curves overlaid in black.
(§6) concentration plotted, with 2-fold dilutions thereafter. Dual domain = PHD+JmjC. […]
(§7) against KDM7 and other protein domains. t1/2 = half life (0.693 / Koff)
as §1

KDM7B JmjC = target: T3, KDM7B JmjC (Homo sapiens, UniProt Q9UPP1); assay: BLI binding; design: key to BLI Screening, KDM7B JmjC: (+) = binding; (-) = no binding; (NS) = non-specific; conditions: for Kd: read-out: BLI pKD, KDM7B JmjC (converted); for BLI Screening, KDM7B JmjC: qualitative assessment of binding by BLI
T3 construct: made in house
From the text: as §2, §3, §4, §5, §6, §7, §1

KDM7B Dual (PHD+JmjC) = target: T4, KDM7B Dual (PHD+JmjC) (Homo sapiens, UniProt Q9UPP1); assay: BLI binding; design: key to BLI Screening, KDM7B Dual: (+) = binding; (-) = no binding; (NS) = non-specific; conditions: for koff / kon / Kd: 1:1 binding model; for Kd: His-tagged protein on Ni-NTA biosensors; for BLI Screening, KDM7B Dual: qualitative assessment of binding by BLI
T4 construct: Dual domain = PHD+JmjC; made in house
From the text: as §2, §3, §4, §5, §6, §7, §1

KDM7B dual domain = target: T5, KDM7B dual domain (Homo sapiens, UniProt Q9UPP1); assay: HDX-MS; type: binding; conditions: relative to DMSO
T5 construct: dual domain (PHD-JmjC) of KDM7B; His-tag (C); made in house
From the text: To further evaluate the interactions of OC9 with KDM7B we used hydrogen–deuterium exchange mass spectrometry (HDX-MS), which informs on protein dynamics by following deuterium incorporation into the protein amide backbone (Fig. 2).
The residue level view was generated by averaging mass changes across overlapping peptide fragments. Supporting data available in ESI. ^† K4me3 binding aromatic cage residues (‘YYMW’ Fig. 1a) are indicated by red asterix.

KDM7B PHD [2] = target: T2, KDM7B PHD; assay: AlphaScreen displacement of H3 1-21K4me3-Bt; type: binding; conditions: for reduced potency relative to OC9: affinity (BLI) and displacement (AS) assays, KDM7B PHD-finger
From the text: The functional effect of OC9 on the PHD-finger was further assessed using an AlphaScreen (AS) based proximity assay. […]

[3] = His-tagged protein on Ni-NTA biosensors, 1:1 binding model, read-out: BLI KD, KDM7B PHD

T3 sequence (Q9UPP1 231-387 limits assumed): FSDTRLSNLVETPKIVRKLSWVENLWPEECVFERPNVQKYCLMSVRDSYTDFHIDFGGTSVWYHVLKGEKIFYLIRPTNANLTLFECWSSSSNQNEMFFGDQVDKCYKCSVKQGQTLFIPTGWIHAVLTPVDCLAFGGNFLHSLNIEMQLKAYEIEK
T4 sequence (Q9UPP1 37-483 limits assumed): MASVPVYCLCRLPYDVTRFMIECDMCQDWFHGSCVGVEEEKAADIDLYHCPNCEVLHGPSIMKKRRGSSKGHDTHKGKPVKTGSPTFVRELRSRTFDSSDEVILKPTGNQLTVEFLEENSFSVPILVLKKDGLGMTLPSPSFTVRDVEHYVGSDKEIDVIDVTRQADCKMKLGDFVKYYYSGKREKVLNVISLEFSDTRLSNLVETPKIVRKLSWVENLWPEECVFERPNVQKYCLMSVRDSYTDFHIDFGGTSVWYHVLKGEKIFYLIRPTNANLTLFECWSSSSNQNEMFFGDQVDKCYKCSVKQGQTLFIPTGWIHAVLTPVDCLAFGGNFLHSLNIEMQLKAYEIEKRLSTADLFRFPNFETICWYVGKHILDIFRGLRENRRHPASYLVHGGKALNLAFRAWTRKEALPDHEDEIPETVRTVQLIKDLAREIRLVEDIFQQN
T1 sequence (Q9UPP1 37-483 limits assumed): as above
KDM7A dual domain, sequence (Q6ZMT4 38-480 limits assumed): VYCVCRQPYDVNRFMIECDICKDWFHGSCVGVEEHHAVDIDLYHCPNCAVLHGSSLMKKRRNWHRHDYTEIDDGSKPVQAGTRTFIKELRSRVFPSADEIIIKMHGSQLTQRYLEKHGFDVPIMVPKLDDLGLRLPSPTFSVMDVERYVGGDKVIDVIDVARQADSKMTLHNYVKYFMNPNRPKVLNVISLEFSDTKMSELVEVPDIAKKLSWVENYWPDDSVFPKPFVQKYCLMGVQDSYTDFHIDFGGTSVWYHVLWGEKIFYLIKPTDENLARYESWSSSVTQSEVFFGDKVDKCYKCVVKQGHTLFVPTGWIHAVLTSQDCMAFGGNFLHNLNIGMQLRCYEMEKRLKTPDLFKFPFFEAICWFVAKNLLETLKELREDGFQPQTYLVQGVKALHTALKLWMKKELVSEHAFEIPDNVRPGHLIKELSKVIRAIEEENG
T5 sequence (Q9UPP1 37-483 limits assumed): as the sequence (Q9UPP1 37-483 limits assumed) above

Compound: CN(C)NC(=O)CCC(=O)O [DAM, daminozide, reference compound]
IC50 (KDM7A dual domain): 251 nM

Compound: CC(C)C[C@@H]1NC(=O)[C@H](Cc2ccc(O)cc2)NC(=O)[C@H](Cc2ccc(O)cc2)NC(=O)CSC[C@@H](C(N)=O)NC(=O)[C@H]([C@@H](C)O)NC(=O)[C@H](C)NC(=O)[C@H](Cc2ccccc2)NC(=O)[C@H](C(C)C)NC(=O)[C@H](CO)NC(=O)[C@@H]2CCCN2C(=O)[C@H](Cc2ccc(O)cc2)NC(=O)[C@@H]2CCCN2C(=O)[C@H](Cc2c[nH]cn2)NC(=O)[C@H]([C@@H](C)O)NC1=O [R12A] (HELM PEPTIDE1{[O=C(C[*:3])[*:2]].Y.Y.L.T.H.P.Y.P.S.V.F.A.T.C.[am]}$PEPTIDE1,PEPTIDE1,1:R3-15:R3$$$V2.0; C-terminus assumed)
reduced potency relative to OC9 (KDM7B PHD [2]): much weaker
faster off-rate by BLI (vs OC9) (KDM7B PHD [1]): ~100 ×

Compound: CC(C)C[C@@H]1NC(=O)[C@H](Cc2ccc(O)cc2)NC(=O)[C@H](Cc2ccc(O)cc2)NC(=O)CSC[C@@H](C(N)=O)NC(=O)[C@H]([C@@H](C)O)NC(=O)[C@H](CCCNC(=N)N)NC(=O)[C@H](Cc2ccccc2)NC(=O)[C@H](C(C)C)NC(=O)[C@H](C)NC(=O)[C@@H]2CCCN2C(=O)[C@H](Cc2ccc(O)cc2)NC(=O)[C@@H]2CCCN2C(=O)[C@H](Cc2c[nH]cn2)NC(=O)[C@H]([C@@H](C)O)NC1=O [S9A] (HELM PEPTIDE1{[O=C(C[*:3])[*:2]].Y.Y.L.T.H.P.Y.P.A.V.F.R.T.C.[am]}$PEPTIDE1,PEPTIDE1,1:R3-15:R3$$$V2.0; C-terminus assumed)
reduced potency relative to OC9 (KDM7B PHD [2]): much weaker

Compound: CC(C)C[C@@H]1NC(=O)[C@H](Cc2ccc(O)cc2)NC(=O)[C@H](Cc2ccc(O)cc2)NC(=O)CSC[C@@H](C(N)=O)NC(=O)[C@H]([C@@H](C)O)NC(=O)[C@H](CCCNC(=N)N)NC(=O)[C@H](Cc2ccccc2)NC(=O)[C@H](CCCCN)NC(=O)[C@H](CO)NC(=O)[C@@H]2CCCN2C(=O)[C@H](Cc2ccc(O)cc2)NC(=O)[C@@H]2CCCN2C(=O)[C@H](Cc2c[nH]cn2)NC(=O)[C@H]([C@@H](C)O)NC1=O [V10K] (HELM PEPTIDE1{[O=C(C[*:3])[*:2]].Y.Y.L.T.H.P.Y.P.S.K.F.R.T.C.[am]}$PEPTIDE1,PEPTIDE1,1:R3-15:R3$$$V2.0; C-terminus assumed)
IC50 (KDM7B PHD [2]; read-out: IC50^AS, KDM7B PHD-finger): > 10000 nM
Kd (KDM7B PHD [1]; read-out: BLI KD, KDM7B PHD-finger): > 10000 nM

Compound: CC(C)C[C@@H]1NC(=O)[C@H](CO)NC(=O)[C@@H]2CCCN2C(=O)[C@H](Cc2ccc(O)cc2)NC(=O)[C@@H]2CCCN2C(=O)[C@H](Cc2c[nH]cn2)NC(=O)[C@H]([C@@H](C)O)NC(=O)[C@H](CC(C)C)NC(=O)[C@H](Cc2ccc(O)cc2)NC(=O)[C@H](Cc2ccc(O)cc2)NC(=O)CSC[C@@H](C(N)=O)NC(=O)[C@H]([C@@H](C)O)NC(=O)[C@H](CCCNC(=N)N)NC(=O)[C@H](Cc2ccccc2)NC1=O [V10L] (HELM PEPTIDE1{[O=C(C[*:3])[*:2]].Y.Y.L.T.H.P.Y.P.S.L.F.R.T.C.[am]}$PEPTIDE1,PEPTIDE1,1:R3-15:R3$$$V2.0; C-terminus assumed)
reduction in IC50^AS compared to OC9 (KDM7B PHD [2]): 10 fold
reduction in KD in BLI compared to OC9 (KDM7B PHD [1]): > 80 fold
reduction in t1/2 in BLI compared to OC9 (KDM7B PHD [1]): > 75 fold

Compound: Ac-YYLTHPYPSVFRTC-NH2 (N-terminus and C-terminus assumed) [Linear]
reduced potency relative to OC9 (KDM7B PHD [2]): > 100 fold

Further lines, with some results ahead:

Kd (KDM7B Dual; 50 mM HEPES, 100 mM NaCl, pH 7.4, 25 °C, 1:1 binding model): 163 nM
ITC ΔH, KDM7B Dual (KDM7B Dual; 25 °C): -16.3 ± 1.5 kJ mol -1
ITC N, KDM7B Dual (KDM7B Dual; stoichiometry): 1.37 ± 0.05
Kd (KDM7B PHD [1]; [3]): > 1000 nM
BLI Screening, KDM7B PHD (KDM7B PHD [1]): -
Kd (KDM7B JmjC; 1:1 binding model): > 1000 nM
BLI Screening, KDM7B JmjC (KDM7B JmjC): -
koff (KDM7B Dual (PHD+JmjC)): 0.0148 ± 0.0001 s⁻¹
kon (KDM7B Dual (PHD+JmjC)): 502000 ± 5000 M⁻¹ s⁻¹
Kd (KDM7B Dual (PHD+JmjC)): 29.5 nM
BLI Screening, KDM7B Dual (KDM7B Dual (PHD+JmjC)): +
Compound: CC[C@H](C)[C@@H]1NC(=O)[C@H](CC(C)C)NC(=O)[C@H](CCCNC(=N)N)NC(=O)[C@H](CCCNC(=N)N)NC(=O)[C@@H]2CCCN2C(=O)[C@H](Cc2ccc(O)cc2)NC(=O)[C@H](C(C)C)NC(=O)[C@H](CC(C)C)NC(=O)[C@H](CC(C)C)NC(=O)[C@H](C(C)C)NC(=O)[C@@H]2CCCN2C(=O)[C@H](Cc2ccc(O)cc2)NC(=O)CSC[C@@H](C(N)=O)NC1=O [OC3] (HELM PEPTIDE1{[O=C(C[*:3])[*:2]].Y.P.V.L.L.V.Y.P.R.R.L.I.C.[am]}$PEPTIDE1,PEPTIDE1,1:R3-14:R3$$$V2.0)
HDX-MS effect on deuterium uptake, KDM7B dual domain (KDM7B dual domain): affected deuterium uptake in both domains

Kd (KDM7B PHD [1]; [3]): > 1000 nM
BLI Screening, KDM7B PHD (KDM7B PHD [1]): -
koff (KDM7B JmjC; 1:1 binding model): 0.0245 ± 0.0001 s⁻¹
kon (KDM7B JmjC; 1:1 binding model): 249000 ± 3000 M⁻¹ s⁻¹
Kd (KDM7B JmjC; 1:1 binding model): 100 nM
BLI Screening, KDM7B JmjC (KDM7B JmjC): +
koff (KDM7B Dual (PHD+JmjC)): 0.0124 ± 0.0001 s⁻¹
kon (KDM7B Dual (PHD+JmjC)): 212000 ± 2000 M⁻¹ s⁻¹
Kd (KDM7B Dual (PHD+JmjC)): 58.6 nM
BLI Screening, KDM7B Dual (KDM7B Dual (PHD+JmjC)): +
Compound: CC[C@H](C)[C@@H]1NC(=O)[C@H](Cc2c[nH]c3ccccc23)NC(=O)[C@H](CO)NC(=O)[C@H](CC(C)C)NC(=O)[C@H](Cc2ccc(O)cc2)NC(=O)[C@H](Cc2ccc(O)cc2)NC(=O)[C@H]([C@@H](C)O)NC(=O)CNC(=O)[C@H](Cc2ccc(O)cc2)NC(=O)[C@H](C(C)C)NC(=O)[C@H](Cc2ccc(O)cc2)NC(=O)CSC[C@@H](C(N)=O)NC(=O)[C@@H]2CCCN2C1=O [OC4] (HELM PEPTIDE1{[O=C(C[*:3])[*:2]].Y.V.Y.G.T.Y.Y.L.S.W.I.P.C.[am]}$PEPTIDE1,PEPTIDE1,1:R3-14:R3$$$V2.0)

BLI Screening, KDM7B Dual (KDM7B Dual (PHD+JmjC)): -
Compound: YIVPSPIWYHWVAC (also: sidechain bridge or staple (positions not given here)) [OC10]

BLI Screening, KDM7B PHD (KDM7B PHD [1]): NS
BLI Screening, KDM7B JmjC (KDM7B JmjC): NS
BLI Screening, KDM7B Dual (KDM7B Dual (PHD+JmjC)): NS
Compound: YLVRIYPNKLIWWC (also: sidechain bridge or staple (positions not given here)) [OC6, enriched cyclic peptide, non-specific in BLI]

BLI Screening, KDM7B Dual (KDM7B Dual (PHD+JmjC)): -
Compound: YPYILYPSVYTTNC (also: sidechain bridge or staple (positions not given here)) [OC8]
